This is an account of results in PubChem BioAssay AID602238 (National Center for Advancing Translational Sciences (NCATS), 2012).

Each structure is given as a SMILES string.

The data set deals with mouse liver microsomes, percent remaining, LC-MS/MS. The data set is described as follows: qHTS for Activators of Human alpha-Glucosidase as a Potential Chaperone Treatment of Pompe Disease: Metabolic Stability. Conditions: at 5 µM; stronger effect = higher value. The source says: Alpha-glucosidase is responsible for hydrolysis of terminal, non-reducing 1,4-linked alpha-D-glucose residues with release of alpha-D-glucose. It is a lysosomal hydrolase that is required for the degradation of a small percentage (1-3%) of cellular glycogen in human. Deficiency of this enzyme results in glycogen-storage disease type II (GSDII), also referred to as Pompe disease, an autosomal recessive disorder. Structurally normal glycogen is accumulated in lysosomes and cytoplasm in affected patients, primarily in muscle tissues. Excessive glycogen storage within lysosomes may interrupt normal functioning of other organelles and leads to cellular injury. In turn, this leads to enlargement and dysfunction of the entire organ involved (eg, cardiomyopathy and muscle weakness). It has reported that the improper folding and trafficking of alpha-glucosidase resulting from the genetic mutations may account for a significant number of Pompe patients. […] We optimized this alpha-glucosidase assay in 1536-well plate format for identifying the novel small molecule inhibitors with the structures other than the sugar analogs in order to develop the new pharmacological chaperones. The probe and other compounds were characterized in this metabolic stability assay to asses their properties. NIH Chemical Genomics Center [NCGC] NIH Molecular Libraries Probe Production Centers Network [MLPCN] MLPCN Grant: MH084841 Assay Submitter (PI): Wei Zheng
5uM of compound is incubated with mouse liver microsome; the reference compounds are verapamil and warfarin. Compounds are incubated and samples are analyzed with LC-MS/MS.
In general terms: Quantitative high-throughput screening tests each substance at several concentrations.
As to `CCCN1CNc2c(c(=O)[nH]c(=S)n2CCc2cccc(Cl)c2Cl)C1`, the percent remaining is 105%.

With `CCCN1CNc2c(c(=O)[nH]c(=S)n2Cc2ccc(OC)c(OC)c2)C1`, the percent remaining was 101%. On to `CCCN1CNc2c(c(=O)[nH]c(=S)n2CCc2ccc(OC)c(OC)c2)C1`, for which the percent remaining was 4%.
